Measured values from article PMC2861555 (International journal of radiation biology, 2009).
Where two headings read alike, the source gives them in different places. Marks after values point to notes of the source that are not given here.

Type: in vivo, rat
Conditions: for Bile/Urine (%): bile share of U excretion / Bile/Urine (%): urine share of U excretion / % Administered Dose Excreted: 24 h; for Reduction (%) of renal uranium vs control / reduction of bone actinide content vs control: 24 h post-metal; for % Administered Dose Excreted: bile + urine; for Renal Conc.: kidneys removed 24 h post-metal; for Kidney U Conc. / Liver U Conc. / Lung U Conc. / Spleen U Conc. / Bone (femur) U Conc.: tissue 24 h post-metal; for Bone (femur) U Conc.: bone + bone marrow; for reduction of bone actinide content vs control: femur

SMILES | Bile/Urine (%): bile share of U excretion (single dose 150 µmol kg^−1 SC) | Bile/Urine (%): urine share of U excretion (single dose 150 µmol kg^−1 SC) | Reduction (%) of renal uranium vs control (single dose 150 µmol kg^−1 SC) | % Administered Dose Excreted (single dose 150 µmol kg^−1 SC) | Renal Conc. (single dose 150 µmol kg^−1 SC) | Kidney U Conc. (single dose 150 µmol kg^−1 SC) | Liver U Conc. (single dose 150 µmol kg^−1 SC) | Lung U Conc. (single dose 150 µmol kg^−1 SC) | Spleen U Conc. (single dose 150 µmol kg^−1 SC) | Bone (femur) U Conc. (single dose 150 µmol kg^−1 SC) | Bile/Urine (%): bile share of U excretion (single dose 300 µmol kg^−1 PO) | Bile/Urine (%): urine share of U excretion (single dose 300 µmol kg^−1 PO) | Reduction (%) of renal uranium vs control (single dose 300 µmol kg^−1 PO) | % Administered Dose Excreted (single dose 300 µmol kg^−1 PO) | Renal Conc. (single dose 300 µmol kg^−1 PO) | Kidney U Conc. (single dose 300 µmol kg^−1 PO) | Liver U Conc. (single dose 300 µmol kg^−1 PO) | Lung U Conc. (single dose 300 µmol kg^−1 PO) | Spleen U Conc. (single dose 300 µmol kg^−1 PO) | Bone (femur) U Conc. (single dose 300 µmol kg^−1 PO) | also measured
COc1ccc(C2=N[C@@H](C(=O)O)CS2)c(O)c1 [compound 3, (S)-2-(2-hydroxy-4-methoxyphenyl)-4,5-dihydro-4-thiazolecarboxylic acid] | 37% | 63% | 40% | 23.8% | 51 ± 22 ^b µg g^−1 | 51 ± 22 ^b µg g^−1 | 9.0 ± 4.0 ^c µg g^−1 | 0.32 ± 0.09 ^c µg g^−1 | 0.48 ± 0.09 ^c µg g^−1 | 4.1 ± 1.6 µg/g | 85% | 15% | 73% | 26.0% | 23 ± 11 ^b µg g^−1 | 23 ± 11 ^b µg g^−1 | 2.5 ± 0.8 ^c µg g^−1 | 0.28 ± 0.10 ^c µg g^−1 | 0.29 ± 0.07 ^c µg g^−1 | 3.1 ± 1.3 µg/g | Bile/Urine (%): bile share of U excretion (single dose 300 µmol kg^−1 SC): 77%; Bile/Urine (%): urine share of U excretion (single dose 300 µmol kg^−1 SC): 23%; Reduction (%) of renal uranium vs control (single dose 300 µmol kg^−1 SC): 60%; % Administered Dose Excreted (single dose 300 µmol kg^−1 SC): 32.7%; Renal Conc. (single dose 300 µmol kg^−1 SC): 34 ± 5 ^b µg g^−1; Kidney U Conc. (single dose 300 µmol kg^−1 SC): 34 ± 5 ^b µg g^−1; Liver U Conc. (single dose 300 µmol kg^−1 SC): 6.6 ± 1.2 ^c µg g^−1; Lung U Conc. (single dose 300 µmol kg^−1 SC): 0.32 ± 0.02 ^c µg g^−1; Spleen U Conc. (single dose 300 µmol kg^−1 SC): 0.39 ± 0.07 ^c µg g^−1; Bone (femur) U Conc. (single dose 300 µmol kg^−1 SC): 3.0 ± 1.5 µg/g
COc1ccc(C2=N[C@@](C)(C(=O)O)CS2)c(O)c1 [compound 7, (S)-4'-(CH3O)-DADFT] | 62% | 38% | 77% | 24.8% | 19 ± 4 ^b µg g^−1 | 19 ± 4 ^b µg g^−1 | 11.3 ± 3.2 µg/g | 0.28 ± 0.04 ^c µg g^−1 | 0.39 ± 0.08 ^c µg g^−1 | 2.9 ± 0.9 µg/g | 89% | 11% | 94% | 26.5% | 5 ± 3 ^b µg g^−1 | 5 ± 3 ^b µg g^−1 | 5.1 ± 1.7 ^c µg g^−1 | 0.30 ± 0.10 ^c µg g^−1 | 0.49 ± 0.44 µg/g | 1.7 ± 0.9 ^b µg g^−1 | Liver U Conc. (single dose 150 µmol kg^−1 SC, listed as C00017): 11.3 ± 3.2 ^c µg g^−1; Bile/Urine (%): bile share of U excretion (single dose 300 µmol kg^−1 SC): 92%; Bile/Urine (%): urine share of U excretion (single dose 300 µmol kg^−1 SC): 8%; Reduction (%) of renal uranium vs control (single dose 300 µmol kg^−1 SC): 90%; % Administered Dose Excreted (single dose 300 µmol kg^−1 SC): 33.9%; Renal Conc. (single dose 300 µmol kg^−1 SC): 8 ± 2 ^b µg g^−1; Kidney U Conc. (single dose 300 µmol kg^−1 SC): 8 ± 2 ^b µg g^−1; Liver U Conc. (single dose 300 µmol kg^−1 SC): 8.1 ± 2.4 ^c µg g^−1; Lung U Conc. (single dose 300 µmol kg^−1 SC): 0.61 ± 0.13 ^c µg g^−1; Spleen U Conc. (single dose 300 µmol kg^−1 SC): 0.67 ± 0.18 ^c µg g^−1; Bone (femur) U Conc. (single dose 300 µmol kg^−1 SC): 1.8 ± 0.6 ^b µg g^−1; reduction of bone actinide content vs control (single dose 300 µmol kg^−1 p.o.): ≥ 50%; reduction of bone actinide content vs control (single dose 300 µmol kg^−1 s.c.): ≥ 50%
